# In US12083118B2, “Substituted 1,1′-biphenyl compounds, analogues thereof, and methods using same” (Arbutus Biopharma Corporation, priority 2018, dated 2024):
# Biological target: PD-L1 (Homo sapiens (Human), UniProt Q9NZQ7)
# Assay: HTRF Assay (PD-1/PD-L1)
# Assay type: binding
# Settings: PD-L1 His protein 6 nM, PD-1 Fc protein 6 nM
# Procedure: PD-L1 small molecule inhibitors were diluted by 3-fold starting from 20 μM and a final concentration of 0.001 μM and added to the well. PD-1 Fc protein was added at the final concentration of 6 nM. PD-L1 His protein, PD-L1 small molecule inhibitors, and PD1 Fc proteins were added to the well in this order, with each 5 μl volume, and were incubated for 15 minutes at room temperature. […] The plate was read using PerkinElmer Envision plate reader and data was analyzed by Prism 6 software. Results are illustrated in Table 1
# Chain of PD-L1 (Q9NZQ7 19-238): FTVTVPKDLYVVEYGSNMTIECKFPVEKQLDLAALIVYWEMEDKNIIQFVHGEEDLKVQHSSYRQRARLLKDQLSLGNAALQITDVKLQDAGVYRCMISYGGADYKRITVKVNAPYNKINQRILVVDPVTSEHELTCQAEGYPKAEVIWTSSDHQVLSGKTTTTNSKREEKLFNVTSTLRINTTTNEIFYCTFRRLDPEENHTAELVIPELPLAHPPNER
row,SMILES,IC50 [nM]
1,"COc1cc(OCc2cccc(-c3cccc(COc4cc(OC)c(CN5CCCC[C@H]5C(=O)O)cc4Cl)c3C)c2C)c(Cl)cc1CN1CCCC[C@H]1C(=O)O [Example 29, (2S)-1-[[4-[[3-[3-[[4-[[(2S)-2-carboxy-1-piperidyl]methyl]-2-chloro-5-methoxy-phenoxy]methyl]-2-methyl-phenyl]-2-methyl-phenyl]methoxy]-5-chloro-2-methoxy-phenyl]methyl]piperidine-2-carboxylic acid]",1.2
2,"Cc1c(COc2cc(OCc3cncc(C#N)c3)c(CN3CCCC[C@H]3C(=O)O)cc2Cl)cccc1-c1cccc(COc2cc(OCc3cncc(C#N)c3)c(CN3CCCC[C@H]3C(=O)O)cc2Cl)c1C [Example 27, (2S)-1-[[4-[[3-[3-[[4-[[(2S)-2-Carboxy-1-piperidyl]methyl]-2-chloro-5-[(5-cyano-3-pyridyl)methoxy]phenoxy]methyl]-2-methyl-phenyl]-2-methyl-phenyl]methoxy]-5-chloro-2-[(5-cyano-3-pyridyl)methoxy]phenyl]methyl] piperidine-2-carboxylic acid]",1.3
